From ChEMBL document CHEMBL4477247, “Computer-aided discovery of anti-HIV agents” (Bioorg Med Chem, 2016)
Converted amounts (≈) assume the structure as drawn.

How the values were obtained:
[1] = system: Human immunodeficiency virus 1; test: Antiviral activity against HIV1 3B infected in human MT2 cells assessed as protection against viral infection by MTT method; assay type: functional, organism-based; details: Human immunodeficiency virus 1, 3B
[2] = system: Human immunodeficiency virus 1; test: Antiviral activity against HIV1 3B harboring reverse transcriptase Y181C mutant infected in human MT2 cells assessed as protection against viral infection by MTT method; assay type: functional, organism-based
[3] = system: Human immunodeficiency virus 1; test: Antiviral activity against HIV1 3B harboring reverse transcriptase K103N/Y181C double mutant infected in human MT2 cells assessed as protection against viral infection by MTT method; assay type: functional, organism-based
[4] = Cytotoxicity against human MT2 cells assessed as growth inhibition by MTT method; assay type: cell-based
[5] = Aqueous solubility of compound in pH 6.5 solution by shake flask method; assay type: physicochemical; details: aqueous solution pH 6.5, pH 6.5
[6] = Human immunodeficiency virus 1, 3B, MT2, read-out: EC50

Cc1ccc(OCCn2ccc(=O)[nH]c2=O)c(Cc2ccccc2)c1
EC50 [1]: 4800 nM

COc1ccnc(Nc2ccc(Cl)c(Oc3ccccc3)c2)n1
EC50 [1]: 2500 nM

Cc1cc(Oc2ccccc2OCCn2ccc(=O)[nH]c2=O)c2cc(C#N)[nH]c2c1
EC50 [2]: Not Active
EC50 [1]: 10 nM
EC50 [3, 6]: 800 nM

N#Cc1cc2c(Oc3ccccc3OCCn3ccc(=O)[nH]c3=O)cc(Cl)cc2o1
CC50 [4]: > 100000 nM
EC50 [2, 6]: 1900 nM
EC50 [1]: 19 nM
EC50 [3, 6]: 260 nM

N#Cc1cc2c(Oc3ccccc3OCCn3ccc(=O)[nH]c3=O)cccn2c1
CC50 [4]: > 100000 nM
EC50 [2, 6]: 310 nM
EC50 [1]: 0.38 nM
EC50 [3, 6]: 11 nM

N#Cc1ccc2c(Oc3ccccc3OCCn3ccc(=O)[nH]c3=O)cc(F)cc2c1
solubility thermodynamic [5]: 9.1 µg/mL (≈ 21.8 µM)

N#Cc1ccc2c(Oc3ccc(F)cc3OCCn3ccc(=O)[nH]c3=O)cc(F)cc2c1
solubility thermodynamic [5]: 82.9 µg/mL (≈ 190 µM)

CSc1ccnc(Nc2ccc(C#N)c(Oc3cccc(/C=C/C#N)c3)c2)n1
CC50 [4]: 1200 nM
EC50 [2, 6]: 250 nM
EC50 [1]: 48 nM

CC(C)=CCOc1cc(Nc2ncnc3occc23)ccc1Cl
CC50 [4]: 17000 nM
EC50 [1]: 5 nM

CC(C)=CCOc1cc(Nc2nccn3cccc23)ccc1Cl
CC50 [4]: 20000 nM
EC50 [1]: 19 nM

CC(C)=CCOc1cc(Nc2nccc3cccn23)ccc1Cl
CC50 [4]: 17000 nM
EC50 [1]: 130 nM

Cc1cc(/C=C/C#N)cc(Oc2cc(Nc3ncnc(C4CC4)n3)ccc2C)c1
EC50 [2, 6]: 15 nM
EC50 [1]: 1.7 nM

Cc1cc(/C=C/C#N)cc(Oc2cc(Nc3ncnc(C4CC4)n3)ccc2Cl)c1
EC50 [2, 6]: 4.9 nM

CC(C)=CCOc1cc(Nc2nccc3cc[nH]c23)ccc1Cl
CC50 [4]: 9200 nM
EC50 [1]: 900 nM

Cc1ccnc2c1NC(=O)c1cccnc1N2C1CC1 [NEVIRAPINE]
CC50 [4]: > 100000 nM
EC50 [2]: Not Active
EC50 [3]: Not Active
